Where two headings read alike, the source gives them in different places.
Legend:
PARP2 = target: T1, PARP2 (Homo sapiens, UniProt Q9UGN5); assay: biochemical; type: biochemical
T1 construct: made in house
Protocol: (§1) All starting materials, reagents, and solvents were purchased from common commercial suppliers and were used as such without further purification. […] Organic solutions were dried over anhydrous Na2SO4 and concentrated with rotary evaporator at low pressure. All the reactions were routinely checked by thin-layer chromatography (TLC) on silica gel 60F254 (Merck) and visualized by using UV and iodine. Flash chromatography separations were carried out on Merck silica gel 60 (mesh 230-400) or by using automated Buchi Reveleris X2-UV with column FP Ecoflex Si 12 g. Yields were of purified products and were not optimized. ^1HNMR spectra were recorded at 400 MHz (Bruker Avance DRX-400), while ^13CNMR spectra were recorded at 101 MHz (Bruker Avance DRX-400). Chemical shifts are given in ppm (δ) relative to TMS. […] Mating constant (J) are reported in Hz. The purity of the tested compounds was evaluated by HPLC analysis using Jasco LC-4000 instrument equipped with a UV-Visible Diode Array Jasco-MD4015 (Jasco Corporation, Tokyo, Japan), and XTerra MS C18 column, 5 μm×4.6 mm×150 mm (Waters Corporation, Massachusetts, USA). Chromatograms were analyzed by ChromNAV2.0 Chromatography Data System software. […] The peak retention time (ret. time) is given in minutes. […] 1-Isobutoxy-4-methoxy-2-nitrobenzene (113). Isobutyl alcohol (0.6 mL, 6.43 mmol) was added, under nitrogen atmosphere at 0° C., to a suspension of NaH (0.26 g, 6.43 mmol) in dry DMF. After 15 minutes, 1-fluoro-4-methoxy-2-nitrobenzene 112 (1 g, 5.84 mmol) was also added and the reaction mixture was stirred at 80° C. for 4 h. […] (2-Isobutoxy-5-methoxyphenyl)amine (114). Zn (1.57 g, 24 mmol) and NH4C1 (2.45 g, 40 mmol) were added to a solution of 113 (0.46 g, 2 mmol) in acetone/H2O (50 mL, ratio 5:1). The reaction mixture was stirred at 60° C. for 3 h and, then, it was filtered over celite. […] N-(2,5-diethoxyphenyl)thiourea (55). […] N-(2-isobutoxy-5-methoxyphenyl)thiourea (115). […] A solution of Br2 (0.2 mL, 3.3 mmol) in CHCl3 (5 mL) was slowly added to a suspension of 45 (0.6 g, 3.3 mmol) in CHCl3 (13 mL), at 0° C. The reaction mixture was stirred at r.t. for 4 h and, then, a 10% solution of Na2SO3 in water was added to the mixture. […] 4,7-Diethoxy-1,3-benzothiazol-2-amine (66). […] 4-Isobutoxy-7-methoxy-1,3-benzothiazol-2-amine (116). […] Hydrazine hydrate (0.23 mL, 4.77 mmol) and CH3COOH (0.12 mL, 2.1 mmol) were added to a suspension of 56 (0.29 g, 1.59 mmol) in ethylene glycol (8 mL), and the reaction mixture was stirred for 24 h at 125° C. […] 6-Ethyl-2-hydrazino-1,3-benzothiazole (69). […] 6-Ispropyl-2-hydrazino-1,3-benzothiazole (70). […] 2-Hydrazino-4,7-dimethoxy-1,3-benzothiazole (73). […] 2-Hydrazino-5,7-dimethoxy-1,3-benzothiazole (75). […] 2-Hydrazino-4,7-Diethoxy-1,3-benzothiazole (77). […] 2-Hydrazino-5-methyl[1,3]thiazolo[5,4-b]pyridine (100). […] A solution of 67 (0.13 g, 0.65 mmol) in formic acid (5 mL) was refluxed for 10 h. The reaction mixture was then poured into ice/water and the pH was neutralized using a saturated solution of NaHCO3.

TNKS2 = target: T2, TNKS2 (Homo sapiens, UniProt Q9H2K2); assay: biochemical
T2 sequence (Q9H2K2 1-1166): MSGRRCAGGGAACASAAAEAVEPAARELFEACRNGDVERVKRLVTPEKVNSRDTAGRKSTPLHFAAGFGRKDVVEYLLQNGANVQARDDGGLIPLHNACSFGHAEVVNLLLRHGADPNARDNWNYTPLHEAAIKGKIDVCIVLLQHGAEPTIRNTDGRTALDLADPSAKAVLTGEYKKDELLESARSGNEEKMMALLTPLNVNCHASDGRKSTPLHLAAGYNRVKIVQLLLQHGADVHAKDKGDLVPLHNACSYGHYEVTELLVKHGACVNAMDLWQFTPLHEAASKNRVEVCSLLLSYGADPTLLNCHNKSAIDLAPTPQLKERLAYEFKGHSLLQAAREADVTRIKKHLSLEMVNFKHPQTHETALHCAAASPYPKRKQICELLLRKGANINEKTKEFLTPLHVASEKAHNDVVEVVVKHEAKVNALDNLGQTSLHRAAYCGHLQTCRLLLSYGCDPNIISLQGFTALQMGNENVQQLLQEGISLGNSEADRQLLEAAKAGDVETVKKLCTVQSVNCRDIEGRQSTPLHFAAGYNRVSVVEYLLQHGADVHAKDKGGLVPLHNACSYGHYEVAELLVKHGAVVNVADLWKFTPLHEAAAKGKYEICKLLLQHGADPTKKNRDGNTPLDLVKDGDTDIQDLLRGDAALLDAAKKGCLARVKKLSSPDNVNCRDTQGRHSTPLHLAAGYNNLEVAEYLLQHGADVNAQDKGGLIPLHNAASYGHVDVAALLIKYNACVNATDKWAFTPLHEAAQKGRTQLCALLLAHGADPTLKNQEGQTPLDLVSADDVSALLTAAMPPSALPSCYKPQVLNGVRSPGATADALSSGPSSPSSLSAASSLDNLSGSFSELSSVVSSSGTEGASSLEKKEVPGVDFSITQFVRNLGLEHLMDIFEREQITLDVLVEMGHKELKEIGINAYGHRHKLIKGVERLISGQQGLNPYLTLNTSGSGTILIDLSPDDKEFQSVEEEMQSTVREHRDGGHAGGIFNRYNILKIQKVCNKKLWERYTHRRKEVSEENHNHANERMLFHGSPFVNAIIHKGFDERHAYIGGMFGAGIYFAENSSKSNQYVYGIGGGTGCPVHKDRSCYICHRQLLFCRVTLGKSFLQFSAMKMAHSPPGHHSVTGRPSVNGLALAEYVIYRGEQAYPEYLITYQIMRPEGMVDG
Protocol: as §1

[1] = NAD+ consumption assay, > less than 50% inhibition at highest concentration, >> no inhibition
[2] = read-out: TNKS2 IC50, NAD+ consumption assay, > less than 50% inhibition at highest concentration, >> no inhibition

T1 sequence (Q9UGN5 whole entry): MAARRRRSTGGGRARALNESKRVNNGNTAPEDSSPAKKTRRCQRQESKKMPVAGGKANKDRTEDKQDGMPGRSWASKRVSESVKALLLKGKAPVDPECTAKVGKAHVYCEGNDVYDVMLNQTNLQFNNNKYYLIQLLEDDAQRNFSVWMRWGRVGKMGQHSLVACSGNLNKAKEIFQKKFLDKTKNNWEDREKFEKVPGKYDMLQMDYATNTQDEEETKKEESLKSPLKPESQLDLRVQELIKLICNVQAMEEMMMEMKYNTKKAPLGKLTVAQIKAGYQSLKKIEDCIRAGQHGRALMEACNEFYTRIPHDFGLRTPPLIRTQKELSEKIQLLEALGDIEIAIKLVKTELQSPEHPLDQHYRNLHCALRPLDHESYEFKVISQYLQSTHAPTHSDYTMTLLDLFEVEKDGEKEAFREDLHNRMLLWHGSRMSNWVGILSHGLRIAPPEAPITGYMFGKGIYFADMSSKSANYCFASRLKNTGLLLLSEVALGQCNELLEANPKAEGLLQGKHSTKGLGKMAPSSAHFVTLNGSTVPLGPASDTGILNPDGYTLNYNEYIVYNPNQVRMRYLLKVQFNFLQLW

Compound	IC50 (PARP2; [1]) [µM]	IC50 (PARP2) [µM]	IC50 (TNKS2; [2]) [µM]	TNKS2 pIC50 ± SEM (TNKS2; experiment repeated three times)	IC50 (TNKS2) [µM]
COc1ccc(OC)c2c1sc1nnc(NC(=O)C(C)(C)C)n12 [Compound 30, N-(5,8-dimethoxy[1,2,4]triazolo[3,4-b][1,3]benzothiazol-3-yl)-2,2-dimethylpropanamide]	53	–	–	–	–
c1ccc2c(c1)sc1nncn12 [Compound 3]	–	5.3	2.5	–	–
Cc1cc(C)c2c(c1)sc1nncn12 [Compound 2]	1.3	–	1.2	–	–
Cc1ccc2sc3nncn3c2c1 [Compound 5, 6-Methyl[1,2,4]triazolo[3,4-b][1,3]benzothiazole]	1.5	–	–	(6.02 ± 0.13)	–
Cc1ccc2c(c1)sc1nnc(/N=C\c3ccc(Cl)cc3)n12 [Compound 25, N-[(1Z)-(4-chlorophenyl)methylene]-7-methyl[1,2,4]triazolo[3,4-b][1,3]benzothiazol-3-amine]	2.9	–	–	–	> 100
Cc1ccc2c(c1)sc1nnc(NCc3ccc(Cl)cc3)n12 [Compound 24, N-(4-chlorobenzyl)-7-methyl[1,2,4]triazolo[3,4-b][1,3]benzothiazol-3-amine]	70	–	–	–	> 100
Cc1ccc(F)c2c1sc1nncn12 [Compound 4, 5-Fluoro-8-methyl[1,2,4]triazolo[3,4-b][1,3]benzothiazole]	–	–	5.4	–	–
COc1ccc(OC)c2c1sc1n[nH]c(=S)n12 [Compound 26, 5,8-Dimethoxy[1,2,4]triazolo[3,4-b][1,3]benzothiazole-3(2H)-thione]	19	–	66	–	–
Cc1ccc2c(c1)sc1nncn12 [Compound 1]	4	–	5.3	–	–
COc1ccc2sc3nncn3c2c1 [Compound 11, 6-Methoxy[1,2,4]triazolo[3,4-b][1,3]benzothiazole]	4.7	–	1	–	–
COc1ccc2c(c1)sc1nncn12 [Compound 12]	8.8	–	5.5	–	–
Clc1ccc2c(c1)sc1nncn12 [Compound 9]	2.4	–	10	–	–
Cc1cccc2c1sc1nncn12 [Compound 6, 8-Methyl[1,2,4]triazolo[3,4-b][1,3]benzothiazole]	8.3	–	3.8	–	–
CSc1nnc2sc3cc(C)ccc3n12 [Compound 21, 7-Methyl-3-(methylthio)[1,2,4]triazolo[3,4-b][1,3]benzothiazole]	12	–	–	–	> 100
COc1cccc2sc3nncn3c12 [Compound 15, 5-Methoxy[1,2,4]triazolo[3,4-b][1,3]benzothiazole]	–	–	1	–	–
Oc1cccc2c1sc1nncn12 [Compound 18, [1,2,4]Triazolo[3,4-b][1,3]benzothiazol-8-ol]	29	–	17	–	–
Cc1ccc2c(c1)sc1nnc(SCc3ccc(Cl)cc3)n12 [Compound 23, 3-[(4-Chlorobenzyl)thio]-7-methyl[1,2,4]triazolo[3,4-b][1,3]benzothiazole]	–	> 100	–	–	> 100
COc1cccc2c1sc1nncn12 [Compound 14, 8-Methoxy[1,2,4]triazolo[3,4-b][1,3]benzothiazole]	–	> 10	24	–	–
COc1cc(OC)c2sc3nncn3c2c1 [Compound 16, 6,8-Dimethoxy[1,2,4]triazolo[3,4-b][1,3]benzothiazole]	20	–	7.6	–	–
COc1ccc(OC)c2c1sc1nnc(NC(C)=O)n12 [Compound 31, N-(5,8-dimethoxy[1,2,4]triazolo[3,4-b][1,3]benzothiazol-3-yl)acetamide]	97	–	–	–	–
CC(C)c1ccc2c(c1)sc1nncn12 [Compound 8, 7-Isopropyl[1,2,4]triazolo[3,4-b][1,3]benzothiazole]	4.5	–	9.5	–	–
COc1ccc(OC)c2c1sc1nncn12 [Compound 13, 5,8-Dimethoxy[1,2,4]triazolo[3,4-b][1,3]benzothiazole]	9.2	–	4	–	–
CCc1ccc2c(c1)sc1nncn12 [Compound 7, 7-Ethyl[1,2,4]triazolo[3,4-b][1,3]benzothiazole]	3.9	–	5.3	–	–

Source: patent US20250177359A1, “COMPOUNDS FOR USE IN THE TREATMENT OF CANCER AND INFLAMMATORY CONDITIONS” (priority 2022, published 2025)
